Literature values in patent US20260263387A1, “INTRANASAL EPINEPHRINE FORMULATIONS AND METHODS OF USE” (ARS Pharmaceuticals Operations, Inc., priority 2024, published 2026).

SMILES: CNC[C@H](O)c1ccc(O)c(O)c1 [epinephrine, (R)-4-(1-Hydroxy-2-(methylamino)ethyl)benzene-1,2-diol]
- blood level of epinephrine (intranasal dose level of 2.5 mg and below (0.3 mg, 0.6 mg, 1.25 mg, or 2.5 mg)): no blood level
- significant systemic absorption of epinephrine via the IN route (intranasal, Srisawat): observed only at 5 mg
